In brackets after ≈: the same amount, converted by molar mass.
Legend:
Assay type in all cases: functional
Bacillus subtilis = test: Antibacterial activity against Bacillus subtilis DSM10 assessed as inhibition of bacterial growth incubated for 18 hrs by broth microdilution method
Micrococcus luteus = test: Antibacterial activity against Micrococcus luteus DSM20030 assessed as inhibition of bacterial growth incubated for 18 hrs by broth microdilution method
[1] = test system: Mycolicibacterium smegmatis; test: Antibacterial activity against Mycobacterium smegmatis ATCC 607 assessed as inhibition of bacterial growth incubated for 48 hrs by BacTiter-Glo assay
Staphylococcus aureus = test: Antibacterial activity against Staphylococcus aureus ATCC 25923 assessed as inhibition of bacterial growth incubated for 18 hrs by broth microdilution method
Listeria monocytogenes = test: Antibacterial activity against Listeria monocytogenes DSM20600 assessed as inhibition of bacterial growth incubated for 48 hrs by BacTiter-Glo assay
Escherichia coli = test: Antibacterial activity against Escherichia coli ATCC 35218 assessed as inhibition of bacterial growth incubated for 18 hrs by broth microdilution method

SMILES | MIC (Bacillus subtilis) [µg/mL] | MIC (Micrococcus luteus) [µg/mL] | MIC [1] [µg/mL] | MIC (Staphylococcus aureus) [µg/mL] | MIC (Listeria monocytogenes) [µg/mL] | MIC (Escherichia coli) [µg/mL]
CC[C@H]1OC(O)(C(C)(O)C(=O)N[C@H](C(=O)N2NCCC[C@@H]2C(=O)N(O)[C@@H](C)C(=O)N(C)[C@@H](CC(C)C)C(=O)N2NCCC[C@@H]2C(=O)N(O)CC(=O)O)C(O)C(C)C)CC[C@@H]1C (some centres not stated) | > 64 | 32 (≈ 36.7 µM) | > 64 | > 64 | > 64 | > 64
CC[C@H]1OC(O)(C(C)(O)C(=O)N[C@@H]2C(=O)N3NCCC[C@@H]3C(=O)N(O)[C@@H](C)C(=O)N(C)[C@@H](CC(C)C)C(=O)N3NCCC[C@@H]3C(=O)N(O)CC(=O)OC2C(C)C)CC[C@@H]1C (some centres not stated) | 0.125 (≈ 0.146 µM) | < 0.031 | > 64 | 0.125 (≈ 0.146 µM) | < 0.031 | > 64

Source: ChEMBL document CHEMBL5120774, “Genome-Mining-Guided Discovery and Characterization of the PKS-NRPS-Hybrid Polyoxyperuin Produced by a Marine-Derived Streptomycete” (2022)
